Measurements from article PMC3006138, “Fexinidazole – A New Oral Nitroimidazole Drug Candidate Entering Clinical Development for the Treatment of Sleeping Sickness” (PLoS Neglected Tropical Diseases, 2010).
“And” between values parts separate entries of the source, which are not always exact repeats. Identical values can stand only once. Like-named read-outs stand apart in the source and are kept apart here.

Key:
[1] = Dog single-dose IV and oral pharmacokinetics; assay type: in vivo; conditions: for AUC(0-t): read-out: AUC0-t(last); for half-life: read-out: t1/2,z (converted)
Protocol: Pharmacokinetic Report for the study No. 0320-2007
Fexinidazole was given as IV and oral administrations to male Beagle dogs according to the […]
Dog ID Route Dose Formulation
IV dose was administered via the radial vein, the oral dose was administered by gastric […]
gavage. A washout period of […] was allowed between the IV (Day 1) and oral (Day 12) […]
4.2. Sample Collection and Handling
Blood was withdrawn from jugular vein and collected in heparinized plastic tubes kept on an […]
ice/water bath, then centrifuged at 1200g for 10 minutes at 4°C. Three aliquots of the […]
separated plasma (about 0.2 mL) was stored at -80°C until analysis for Fexinidazole and its […]
sulphone and sulphoxide metabolites. Blood was taken at pre-dose and 0.083 (5 minutes), […]
4.3. Bioanalytical Method
Plasma concentrations of Fexinidazole and its sulphone and sulphoxide metabolites were […]
determined by LC-MS-MS method following plasma protein precipitation. The lower limit […]
of quantification of the bioanalytical method was 5 ng/mL for all analytes. Bioanalytical data […]
Details of the bioanalytical method used are reported in Appendix 2 and analytical […]
performances of calibration standards are reported in Appendix 3.
4.4. Pharmacokinetic Calculations
Pharmacokinetic evaluations of Fexinidazole and sulphone and sulphoxide metabolites were […]
For the calculations, the pre-dose concentrations of Fexinidazole were set equal to C0.083 […]
after IV administration, whilst the pre-dose concentrations of Fexinidazole after oral […]
administration and the pre-dose concentrations of the metabolites after both doses were set […]
Nerviano Medical Sciences
After IV and oral dosing, Cmax (C0.083 for Fexinidazole after IV dosing) and tmax of each […]
concentration. After both doses, for each compound, the area under plasma concentration vs. […]
last detectable concentration. The half-life of the terminal phase, t1/2,z, was determined by […]
linear regression analysis of the natural-log concentration vs. time curve, where t1/2,z = […]
ln(2)/slope of the regression line. […]
infinite time, AUC0-∞, was determined as
AUC0- ∞ = AUC0 − t(last) + Ct(last)⋅ […]
The fraction of AUC0-∞ accounted for by the extrapolated area under the curve was […]
%EXTt (last)− 0∞=100⋅AUCt(last)−∞
After IV dosing, plasma clearance and volume of distribution at steady state of Fexinidazole […]
were calculated as follows:
Vss = CL⋅MRT, where MRT is the mean residence time.
Absolute bioavailability of Fexinidazole was calculated from the ratio of individual oral to […]
IV dose-normalized AUC0-t(last) and AUC0-∞ values.
After both doses, Cmax and AUC values of each compound were also normalized to a 1 […]
pharmacokinetic parameters sorted by compound and route of dosing.
Plasma concentrations and pharmacokinetic parameters of each compound were reported to […]
three significant figures.
5.1.1. Clinical and Physical Examinations
Individual clinical signs are reported in Appendix 4. […]
treatments with Fexinidazole. No meaningful clinical signs were recorded during wash out

[2] = Mouse brain concentrations; assay type: in vivo; conditions: for concentration at 60 min / concentration at 30 min / Kp at 5 min / Kp at 30 min / Kp at 60 min / concentration at 5 min / concentration at 15 min / Kp at 15 min: female, NMRI, mouse; for Kp at 5 min / Kp at 30 min / Kp at 60 min / Kp at 15 min: read-out: Mean plasma:brain ratio (plasma = 1.00)
Protocol: Following sacrifice, the cranium of mice was opened and the brain removed. Excess blood was washed from the brain with distilled water and any excess fluid blotted on absorbent paper. The brain was then snap frozen using liquid nitrogen and placed into a suitably labelled container and stored at approximately −70°C, pending analysis. Brains were homogenized and extracted samples were prepared appropriately for analysis via liquid chromatography-mass spectrometry (LC-MS).
BioDynamics Study No: DND/01
Two groups of female mice were dosed as follows:
Number Treatment Dose (mg/kg) Route
All doses are expressed as free base
Intravenous doses were administered into a lateral tail vein using an appropriately sized syringe and 25G needle and the oral formulation by oral gavage using a polypropylene gavage tube. All doses were given as a single bolus dose at a constant dose volume of 10.0 mL/kg.
1.6 Blood sample collection
At each sampling time point, three animals in each treatment group were deeply anaesthetised using isoflurane and blood samples (approximately 1 mL) taken into individual heparinised tubes by cardiac puncture, following which the animals were killed by cervical fracture. Samples were collected at the following times post-dose:
Following collection, the blood samples were centrifuged (approximately 10000 g, 2 min at 4 °C) and the plasma retained as one aliquot at approximately -70°C prior to analysis of test material concentrations at BioDynamics by LC-MS/MS.
1.7 Collection of terminal brain samples
Following collection of the terminal blood sample the cranium of each mouse was carefully opened and the brain removed. Excess blood was washed from the brain with distilled water and any excess fluid blotted on absorbent paper. The brain was then snap frozen using liquid nitrogen and placed into a suitably labelled container and stored frozen at approximately -70°C pending analysis.
All of the plasma samples together with the brains from the 15 minute time point were analysed for concentrations of the test material and its sulfone and sulfoxide metabolites. In addition the brains from the 5 and 30 minute time points for the intravenously treated and the 30 and 60 minute time points for the orally treated animals were analysed for concentrations of Fexinidazole and its sulfone and sulfoxide metabolites using an LC-MS/MS method developed at BioDynamics.
All samples were treated as temperature sensitive. Blood samples were collected onto wet ice, followed by centrifugation at 4 °C. Plasma and brain samples were snap frozen on dry ice (plasma) or liquid nitrogen (brains) prior to long term storage at less than -70 °C pending analysis.

[3] = dog, plasma, fexinidazole 1 mg/kg IV, male Beagle dogs, read-out: Cmax (C0.083 for parent)
[4] = male, Beagle, dog, plasma, fexinidazole 1 mg/kg IV
[5] = male, Beagle, dog, plasma, fexinidazole 10 mg/kg oral
[6] = male, Beagle, dog, plasma, fexinidazole 10 mg/kg oral, read-out: Cmax
[7] = brain homogenate, oral, 25 mg/kg, fexinidazole 25 mg/kg po, 60 min, read-out: Brain homogenate concentration
[8] = brain, oral, 25 mg/kg, fexinidazole 25 mg/kg po, 30 min, read-out: Brain concentration
[9] = brain, oral, 25 mg/kg, fexinidazole 25 mg/kg po, 30 min, read-out: Brain homogenate concentration
[10] = brain, oral, 25 mg/kg, fexinidazole 25 mg/kg po, 60 min, read-out: Brain concentration
[11] = fexinidazole 25 mg/kg po, 30 min
[12] = fexinidazole 25 mg/kg po, 60 min
[13] = brain homogenate, intravenous, 1 mg/kg, fexinidazole 1 mg/kg iv, 5 min, read-out: Brain homogenate concentration
[14] = brain homogenate, intravenous, 1 mg/kg, fexinidazole 1 mg/kg iv, 30 min, read-out: Brain homogenate concentration
[15] = brain, intravenous, 1 mg/kg, fexinidazole 1 mg/kg iv, 5 min, read-out: Brain concentration
[16] = brain, intravenous, 1 mg/kg, fexinidazole 1 mg/kg iv, 30 min, read-out: Brain concentration
[17] = dog, oral 10 mg/kg vs IV 1 mg/kg

SMILES | Cmax [1, 3] | Tmax [1, 4] | AUC(0-t) [1, 4] | Tmax [1, 5] | AUC(0-t) [1, 5] | Cmax [1, 6] | concentration at 60 min [2, 7] | concentration at 30 min [2, 8] | concentration at 30 min [2, 9] | concentration at 60 min [2, 10] | Kp at 5 min ([2]; brain, iv 1 mg/kg, 5 min) | Kp at 30 min ([2]; brain, iv 1 mg/kg, 30 min) | Kp at 30 min ([2]; brain, po 25 mg/kg, 30 min) | Kp at 60 min ([2]; brain, po 25 mg/kg, 60 min) | Brain concentration [2, 11] | Brain concentration [2, 12] | AUC(0-inf) [1, 4] | half-life [1, 4] | AUC(0-inf) [1, 5] | half-life [1, 5] | also measured
Cn1c([N+](=O)[O-])cnc1COc1ccc(S(C)(=O)=O)cc1 [Fexinidazole sulfone] | 681 ± 162 ng/mL | 4.67 h | 5270 ± 1230 ng·h/mL | 6.67 h | 44700 ± 3810 ng·h/mL | 3260 ± 762 ng/mL | 394 ng/mL | 468 ng/g | 156 ng/mL | 1180 ng/g | 0 | 0 | 0.05 | 0.06 | 469 ± 222 ng/g | 1183 ± 322 ng/g | – | – | – | – | Brain homogenate concentration ([2]; fexinidazole 1 mg/kg iv, 5 min): BLQ; Brain homogenate concentration ([2]; fexinidazole 1 mg/kg iv, 30 min): BLQ
Cn1c([N+](=O)[O-])cnc1COc1ccc([S+](C)[O-])cc1 (centres unmarked) [Fexinidazole sulfoxide] | 763 ± 45.3 ng/mL | 0.194 h | 1480 ± 197 ng·h/mL | 1.17 h | 8560 ± 767 ng·h/mL | 1900 ± 186 ng/mL | 1620 ng/mL | 3310 ng/g | 1100 ng/mL | 4870 ng/g | 0.045 | 0.064 | 0.078 | 0.12 | 3315 ± 1611 ng/g | 4873 ± 2335 ng/g | 1520 ± 208 ng·h/mL | 1.16 h | 8780 ± 895 ng·h/mL | 5.72 h | concentration at 5 min [2, 13]: 39.9 ng/mL; concentration at 30 min [2, 14]: 57.6 ng/mL; concentration at 5 min [2, 15]: 120 ng/g; concentration at 30 min [2, 16]: 173 ng/g
CSc1ccc(OCc2ncc([N+](=O)[O-])n2C)cc1 [Fexinidazole, 1-methyl-2-((p-(methylthio)phenoxy)methyl)-5-nitroimidazole] | 320 ± 136 ng/mL | – | 66.9 ± 31.8 ng·h/mL | 0.667 h | 57.2 ± 13.4 ng·h/mL | 24.2 ± 5.86 ng/mL | 254 ng/mL | 800 ng/g | 266 ng/mL | 763 ng/g | 0.56 | 1.03 | 1.16 | 1.22 | 800 ± 92.6 ng/g | 763 ± 90.7 ng/g | 70.6 ± 33.8 ng·h/mL | 0.406 h | 85.3 ± 1.27 ng·h/mL | 1.93 h | clinical signs ([1]; 1 mg/kg IV and 10 mg/kg oral): No significant treatment related clinical signs; F% AUC0-t(last) [1, 17]: 10% and 9.60 ±4.32%; F% AUC0-∞ [1, 17]: 14.1%; clearance ([1]; male, Beagle, dog, plasma, 1 mg/kg IV): 273 mL/min/kg; Vd ([1]; male, Beagle, dog, plasma, 1 mg/kg IV, read-out: Vss): 3.26 L/kg; concentration at 5 min [2, 13]: 92.5 ng/mL; concentration at 15 min ([2]; brain homogenate, intravenous, 1 mg/kg, fexinidazole 1 mg/kg iv, 15 min, read-out: Brain homogenate concentration): 21.3 ng/mL; concentration at 30 min [2, 14]: 12.1 ng/mL; concentration at 15 min ([2]; brain homogenate, oral, 25 mg/kg, fexinidazole 25 mg/kg po, 15 min, read-out: Brain homogenate concentration): 379 ng/mL; concentration at 5 min [2, 15]: 277 ng/g; concentration at 15 min ([2]; brain, intravenous, 1 mg/kg, fexinidazole 1 mg/kg iv, 15 min, read-out: Brain concentration): 63.8 ng/g; concentration at 30 min [2, 16]: 36.2 ng/g; concentration at 15 min ([2]; brain, oral, 25 mg/kg, fexinidazole 25 mg/kg po, 15 min, read-out: Brain concentration): 1140 ng/g; Kp at 15 min ([2]; brain, iv 1 mg/kg, 15 min): 0.76; Kp at 15 min ([2]; brain, po 25 mg/kg, 15 min): 0.76; Brain concentration ([2]; fexinidazole 25 mg/kg po, 15 min): 1136 ± 54.1 ng/g
